{"source": "patent US10463593B2", "about": "“Lupin peptide extracts and skin firmness” (LABORATOIRES EXPANSCIENCE, priority 2014, dated 2019)", "key": {"[1]": {"tested_on": "“aged” dermal equivalents seeded with senescent fibroblasts", "assay": "Contraction of “aged” dermal equivalents (surface area)", "format": "cell-based", "settings": "10 ng/ml; for % “aged” control: area relative to “aged” control; for Area in mm^2 (mean ± SEM): “aged” DEs", "experimental": "A model of dermal equivalents containing fibroblasts allows evaluation of the quality of interactions between fibroblasts and collagen fibres. The free contraction/retraction of these dermal equivalents results from the dynamic activity of the cells which apply tensile forces on the collagen network.\nThe effect of lupin peptide extract on the contraction of dermal equivalents was evaluated. To induce a condition of fibroblast loss of contractile forces, the dermal equivalents were seeded with senescent so-called “aged” fibroblasts (obtained by successive passaging in accordance with the Hayflick model).\n“Aged” or normal dermal equivalents were prepared by mixing the fibroblasts (at passage 8 for normal dermal equivalents or at passage 17 for “aged” dermal equivalents) with a collagen solution.\nAfter full gelling, the dermal equivalents were treated with TGFβ at 10 ng/ml (control) or 0.1% lupin peptide extract and incubated for 4 days.\nThe dermal equivalents were photographed at D1, D3 and D4 to measure their surface area for determination of contraction."}, "[2]": {"tested_on": "proteins of the extracellular matrix (chiefly collagens)", "assay": "Non-enzymatic glycation: incorporation of [3H]-glucose in extracellular matrix proteins deposited by dermal fibroblasts", "format": "biochemical, human", "settings": "1 mg/ml", "experimental": "The non-enzymatic insertion of AGEs in synthesised collagen fibres deposited by human dermal fibroblasts cultured in vitro was examined. A radioactive detection method was used that was based on the incorporation of tritiated glucose in the proteins of the extracellular matrix.\nNormal human dermal fibroblasts were cultured in the presence of vitamin C to stimulate the synthesis of collagen. The cells then underwent different operations (freezing/thawing/heating) to inactivate all enzymatic activity.\nThe matrix layers thus obtained were treated in the presence of the above-described lupin peptide extract at 0.2 and 2%, aminoguanidine HCl at 1 mg/ml (control), 0.2% glucose and [^3H]-glucose radioactive marker for 15 days at 37° C., in the absence of oxygen (rapid re-oxygenation was performed after 7 treatment days).\nAfter incubation, the proteins of the extracellular matrix (chiefly collagens) were extracted using a chaotropic buffer, precipitated with trichloroacetic acid and collected on filters. The radioactivity incorporated in the ECM fibres was measured by liquid scintillation.\nThe results were analysed statistically using one-factor analysis of variance followed by a Dunnett test, and are given in the Table below: […]"}}, "data": [{"compound": "TGFβ", "values": [{"measurement": "Contraction of “aged” DEs (in words)", "setting": "[1]; significant after a treatment time of 4 days", "value": "stimulates the contraction of “aged” DEs"}, {"measurement": "% “aged” control", "setting": "[1]; D1", "value": 94, "unit": "%"}, {"measurement": "Area in mm^2 (mean ± SEM)", "setting": "[1]; D1", "value": "264.6 ± 5.5", "unit": "mm^2"}, {"measurement": "% “aged” control", "setting": "[1]; D3", "value": 95, "unit": "%"}, {"measurement": "Area in mm^2 (mean ± SEM)", "setting": "[1]; D3", "value": "285.9 ± 6.7", "unit": "mm^2"}, {"measurement": "% “aged” control", "setting": "[1]; D4, p < 0.05", "value": "85 (p < 0.05) %"}, {"measurement": "Area in mm^2 (mean ± SEM)", "setting": "[1]; D4", "value": "201.3 ± 8.4", "unit": "mm^2"}]}, {"compound": "Cl.N=C(N)NN", "note": "[Aminoguanidine, aminoguanidine HCl]", "values": [{"measurement": "Incorporation [^3H]-glucose (cpm)", "setting": "[2]; 15 days at 37° C., control 5527 ± 464", "value": "1219 ± 92", "unit": "cpm"}, {"measurement": "Inhibition of glycation", "setting": "[2]; versus control, p < 0.001", "value": "−78", "unit": "% p < 0.001"}]}]}
